Literature values as cited in patent publication US6379294B1, “Process for preparing esterquats” (Akzo Nobel N.V., priority 1999, dated 2002).

Conditions: salts of the tertiary amines as such; from Klomp, Kruka, Reijnhart, IBC Conference 1998

SMILES | Inhibition of the growth of gas hydrates
CCCCCCCCCCN(CCCC)CCCC [di-n-butyl decyl amine] | inhibited the growth of gas hydrates
CCCCN(CCCC)CCCC [tri-n-butyl amine] | inhibited the growth of gas hydrates
